Measurements as given in US10647679B2, “N-methyl-D-aspartate receptor (NMDAR) potentiators, pharmaceutical compositions, and uses related thereto” (Emory University, priority 2015, dated 2020).
Where two headings read alike, the source gives them in different places.

Assays:
Assay type in all cases: cell-based
[1] = target: T1, recombinant rat GluN1/GluN2B (Rattus norvegicus, UniProt Q00960); test: Two-electrode voltage-clamp (TEVC) recordings in Xenopus laevis oocytes, GluN1/GluN2B; conditions: for I30 μM/Icontrol (mean ± SEM, %) GluN2B: 30 μM compound, Tables 5-7; for I10 μM/Icontrol (mean ± SEM, %) GluN2B: 10 μM compound, Table 3
T1 construct: expressed in transfected cells; host or cells: Xenopus laevis oocytes (Ecocyte) injected with in vitro transcribed cRNA
T1 sequence (Q00960 27-1482, other chains not shown): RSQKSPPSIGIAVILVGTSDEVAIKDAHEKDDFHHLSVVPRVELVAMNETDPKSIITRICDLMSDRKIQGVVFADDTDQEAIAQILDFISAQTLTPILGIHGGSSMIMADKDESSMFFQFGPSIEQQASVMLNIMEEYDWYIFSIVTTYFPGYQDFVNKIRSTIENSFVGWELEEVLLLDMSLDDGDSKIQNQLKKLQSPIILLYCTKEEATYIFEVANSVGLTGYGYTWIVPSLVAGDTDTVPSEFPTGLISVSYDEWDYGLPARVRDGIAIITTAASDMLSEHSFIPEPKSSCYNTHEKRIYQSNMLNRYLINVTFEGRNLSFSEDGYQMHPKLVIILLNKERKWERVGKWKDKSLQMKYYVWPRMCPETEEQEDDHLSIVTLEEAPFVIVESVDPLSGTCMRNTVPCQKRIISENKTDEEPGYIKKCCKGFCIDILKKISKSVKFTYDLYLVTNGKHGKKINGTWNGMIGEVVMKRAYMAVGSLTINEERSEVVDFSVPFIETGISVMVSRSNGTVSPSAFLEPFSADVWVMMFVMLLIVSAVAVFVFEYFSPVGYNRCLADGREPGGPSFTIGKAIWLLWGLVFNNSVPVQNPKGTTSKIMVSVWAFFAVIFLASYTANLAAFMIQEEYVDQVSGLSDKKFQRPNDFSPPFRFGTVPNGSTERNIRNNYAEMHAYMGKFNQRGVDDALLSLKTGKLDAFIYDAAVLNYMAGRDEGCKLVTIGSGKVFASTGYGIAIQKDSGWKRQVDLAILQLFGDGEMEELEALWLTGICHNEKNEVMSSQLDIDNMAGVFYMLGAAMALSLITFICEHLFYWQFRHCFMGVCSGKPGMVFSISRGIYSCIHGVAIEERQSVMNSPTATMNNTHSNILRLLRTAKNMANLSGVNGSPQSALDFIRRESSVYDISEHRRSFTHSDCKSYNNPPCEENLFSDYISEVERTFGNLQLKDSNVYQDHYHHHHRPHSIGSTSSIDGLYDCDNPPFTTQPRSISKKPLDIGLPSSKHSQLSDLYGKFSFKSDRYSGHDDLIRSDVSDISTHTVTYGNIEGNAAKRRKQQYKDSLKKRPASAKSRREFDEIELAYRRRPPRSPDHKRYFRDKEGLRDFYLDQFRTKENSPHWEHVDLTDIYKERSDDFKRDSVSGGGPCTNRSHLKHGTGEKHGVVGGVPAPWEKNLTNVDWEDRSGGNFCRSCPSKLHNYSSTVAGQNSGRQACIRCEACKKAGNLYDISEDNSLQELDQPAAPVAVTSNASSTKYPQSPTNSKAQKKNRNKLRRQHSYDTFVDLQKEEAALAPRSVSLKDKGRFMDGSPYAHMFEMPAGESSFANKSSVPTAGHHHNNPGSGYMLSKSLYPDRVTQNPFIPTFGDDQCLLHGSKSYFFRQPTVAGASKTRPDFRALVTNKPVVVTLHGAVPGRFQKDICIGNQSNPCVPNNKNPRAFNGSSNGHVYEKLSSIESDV
Procedure: (§1) Data are from between 3-26 oocytes from 2-5 frogs for each compound and receptor tested.
(§2) Two-electrode voltage-clamp recordings were performed in Xenopus laevis oocytes (Ecocyte) expressing recombinant rat GluN1/GluN2A, GluN1/GluN2B, GluN1/GluN2C, GluN1/GluN2D. cRNA was transcribed in vitro (Ambion), diluted with nuclease free water, and injected at a ratio of 1:2 GluN1:GluN2 (5-10 ng total cRNA). The oocytes were kept in Barth's solution comprised of (in mM) 88 NaCl, 5 Tris-HCl, 2.4 NaHCO3, 1 KCl, 0.84 MgSO4, 0.41 CaCl2, and 0.33 Ca(NO3)2 at pH 7.4 at 15-17° C. for two to five days before experiments. Oocytes were placed into a perfusion chamber and continually washed with recording solution containing (in mM) 90 NaCl, 1.0 KCl, 0.5 BaCl2, 0.005 EDTA, and 10 HEPES at pH 7.4 (23° C.). Voltage clamp recordings were conducted at a holding potential of −40 mV. All compounds were made as 20 mM stock solutions in DMSO and dissolved to reach the final concentration in recording solution. Final DMSO content was 0.05-0.5% (vol/vol). Some oocytes expressing GluN1/GluN2A were pretreated with […] BAPTA-AM for 10 minutes or injected with […] of 2 mM K-BAPTA to prevent gradual run-up of the current response.

[2] = target: T2, recombinant rat GluN1/GluN2B (Rattus norvegicus, UniProt P35439+Q00960); test: as above
T2 construct: expressed in transfected cells; host or cells: Xenopus laevis oocytes (Ecocyte) injected with in vitro transcribed cRNA
T2 sequence (Q00960 27-1482, other chains not shown): as above
Procedure: as §1, §2

[3] = target: T3, recombinant rat GluN1/GluN2D (Rattus norvegicus, UniProt P35439+Q62645); test: Two-electrode voltage-clamp (TEVC) recordings in Xenopus laevis oocytes, GluN1/GluN2D
T3 construct: expressed in transfected cells; host or cells: Xenopus laevis oocytes (Ecocyte) injected with in vitro transcribed cRNA
Procedure: as §1, §2

[4] = target: T4, recombinant rat GluN1/GluN2D (Rattus norvegicus, UniProt Q62645); test: as above; conditions: for I30 μM/Icontrol (mean ± SEM, %) GluN2D: 30 μM compound, Tables 5-7; for I10 μM/Icontrol (mean ± SEM, %) GluN2D: 10 μM compound, Table 3
T4 construct: expressed in transfected cells; host or cells: Xenopus laevis oocytes (Ecocyte) injected with in vitro transcribed cRNA
Procedure: as §1, §2

[5] = target: T5, recombinant rat GluN1/GluN2C (Rattus norvegicus, UniProt P35439+Q00961); test: Two-electrode voltage-clamp (TEVC) recordings in Xenopus laevis oocytes, GluN1/GluN2C
T5 construct: expressed in transfected cells; host or cells: Xenopus laevis oocytes (Ecocyte) injected with in vitro transcribed cRNA
T5 sequence (Q00961 20-1237, other chains not shown): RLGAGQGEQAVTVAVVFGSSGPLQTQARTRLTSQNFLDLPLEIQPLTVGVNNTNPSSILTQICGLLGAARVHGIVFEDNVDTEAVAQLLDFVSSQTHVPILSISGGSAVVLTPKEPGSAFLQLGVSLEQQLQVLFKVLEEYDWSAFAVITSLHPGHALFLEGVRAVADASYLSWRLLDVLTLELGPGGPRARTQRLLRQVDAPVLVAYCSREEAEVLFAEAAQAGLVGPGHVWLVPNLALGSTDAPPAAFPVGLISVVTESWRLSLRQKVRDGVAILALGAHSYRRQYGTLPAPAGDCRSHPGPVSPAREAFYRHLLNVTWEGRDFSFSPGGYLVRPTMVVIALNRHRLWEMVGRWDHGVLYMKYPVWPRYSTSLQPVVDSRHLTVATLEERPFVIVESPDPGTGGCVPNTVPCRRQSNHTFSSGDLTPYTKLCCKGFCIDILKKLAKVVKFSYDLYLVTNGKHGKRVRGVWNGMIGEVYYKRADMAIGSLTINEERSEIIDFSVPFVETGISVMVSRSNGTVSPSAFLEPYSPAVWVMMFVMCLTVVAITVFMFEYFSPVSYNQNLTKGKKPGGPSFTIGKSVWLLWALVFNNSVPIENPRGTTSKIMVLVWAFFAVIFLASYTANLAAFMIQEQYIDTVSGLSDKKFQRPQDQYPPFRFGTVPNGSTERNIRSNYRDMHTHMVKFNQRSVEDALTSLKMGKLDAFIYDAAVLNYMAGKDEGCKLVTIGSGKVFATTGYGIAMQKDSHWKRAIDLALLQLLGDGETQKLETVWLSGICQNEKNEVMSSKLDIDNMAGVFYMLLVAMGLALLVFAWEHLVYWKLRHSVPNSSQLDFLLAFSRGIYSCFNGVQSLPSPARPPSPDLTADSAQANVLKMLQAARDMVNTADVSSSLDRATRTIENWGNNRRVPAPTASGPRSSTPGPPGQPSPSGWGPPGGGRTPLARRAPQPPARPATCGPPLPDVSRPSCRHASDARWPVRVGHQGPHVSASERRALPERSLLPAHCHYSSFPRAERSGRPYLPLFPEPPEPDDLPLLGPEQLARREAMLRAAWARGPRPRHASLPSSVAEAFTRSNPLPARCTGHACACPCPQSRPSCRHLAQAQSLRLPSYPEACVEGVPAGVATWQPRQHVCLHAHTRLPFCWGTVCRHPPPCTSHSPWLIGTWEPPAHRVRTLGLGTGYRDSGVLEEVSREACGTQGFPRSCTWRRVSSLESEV
Procedure: as §1, §2

[6] = target: T6, recombinant rat GluN1/GluN2C (Rattus norvegicus, UniProt Q00961); test: as above; conditions: for I30 μM/Icontrol (mean ± SEM, %) GluN2C: 30 μM compound, Tables 5-7; for I10 μM/Icontrol (mean ± SEM, %) GluN2C: 10 μM compound, Table 3
T6 construct: expressed in transfected cells; host or cells: Xenopus laevis oocytes (Ecocyte) injected with in vitro transcribed cRNA
T6 sequence (Q00961 20-1237, other chains not shown): as above
Procedure: as §1, §2

[7] = fitted when potentiation at 30 μM exceeded 120%, Tables 3, 5-7, read-out: EC50 (max.) (μM %) GluN2B: fitted EC50
[8] = maximum potentiation, response without modulator = 100%, read-out: GluN2B EC50 (μM)/Max %: Max %
[9] = percentage of the initial glutamate (100 μM) and glycine (30 μM) current, read-out: EC50 (max.) (μM %) GluN2B: fitted maximum response
[10] = percentage of the initial glutamate (100 μM) and glycine (30 μM) current, read-out: EC50 (max.) (μM %) GluN2D: fitted maximum response
[11] = fitted when potentiation at 30 μM exceeded 120%, Tables 3, 5-7, read-out: EC50 (max.) (μM %) GluN2C: fitted EC50
[12] = maximum potentiation, response without modulator = 100%, read-out: GluN2C EC50 (μM)/Max %: Max %
[13] = percentage of the initial glutamate (100 μM) and glycine (30 μM) current, read-out: EC50 (max.) (μM %) GluN2C: fitted maximum response
[14] = fitted when potentiation at 30 μM exceeded 120%, Tables 3, 5-7, read-out: EC50 (max.) (μM %) GluN2D: fitted EC50
[15] = maximum potentiation, response without modulator = 100%, read-out: GluN2D EC50 (μM)/Max %: Max %
[16] = Tables 11-13, read-out: EC50 & Max Effect: 2D Max (%)
[17] = Tables 11-13, read-out: EC50 & Max Effect: 2C Max (%)

EC50 [2, 7]	Emax [2, 8]	Emax [2, 9]	Emax [3, 10]	EC50 [5, 11]	Emax [5, 12]	Emax [5, 13]	SMILES	also measured
1.4 µM	130%	134%		0.65 µM	137%	139%	CCOc1ccc(OCC2c3ccc(OC(C)C)cc3CCN2C(=O)c2ccc(Cl)c(Cl)c2)cc1 (stereo not drawn) [1180-103]	I30 μM/Icontrol (mean ± SEM, %) GluN2B [1]: 120%; I30 μM/Icontrol (mean ± SEM, %) GluN2D [4]: 101%; I30 μM/Icontrol (mean ± SEM, %) GluN2C [6]: 134%
	182%				175%		CCOc1ccc(OCC2c3ccc(OC(C)C)cc3CCN2C(=O)c2ccc(F)c(Cl)c2)cc1 (stereo not drawn) [1180-144]	Emax [3, 15]: 135%
0.28 µM		202%	313%	0.5 µM		316%	COc1ccc(OC[C@@H]2c3ccc(OC(C)C)cc3CCN2C(=S)c2cccc(Cl)c2)cc1 [(S)-(−)-1180-163]	I10 μM/Icontrol (mean ± SEM, %) GluN2B [1]: 203%; EC50 [3, 14]: 0.5 µM; I10 μM/Icontrol (mean ± SEM, %) GluN2D [4]: 299%; I10 μM/Icontrol (mean ± SEM, %) GluN2C [6]: 302%
6.7 µM		206%		7.6 µM		132%	CCOc1ccc(OC[C@@H]2c3ccc(OC(C)C)cc3CCN2C(=O)c2cccc(F)c2)cc1 [(S)-(−)-1180-87]	I30 μM/Icontrol (mean ± SEM, %) GluN2B [1]: 195%; I30 μM/Icontrol (mean ± SEM, %) GluN2D [4]: 119%; I30 μM/Icontrol (mean ± SEM, %) GluN2C [6]: 131%
	132%				315%		COc1ccc(OCC2c3ccc(N(C)C)cc3CCN2C(=O)c2cccc(Cl)c2)cc1 (stereo not drawn) [1180-104]	Emax [3, 15]: 349%

Second part, the molecule before the results:

SMILES	EC50 [2, 7]	Emax [2, 8]	Emax [2, 9]	Emax [3, 10]	EC50 [5, 11]	Emax [5, 12]	Emax [5, 13]	also measured
CCOc1ccc(OCC2c3ccc(OC(C)C)cc3CCN2C(=S)c2cccc(C(F)(F)F)c2)cc1 (stereo not drawn) [1180-168]	1 µM	171%	179%	128%	0.33 µM	138%	141%	I30 μM/Icontrol (mean ± SEM, %) GluN2B [1]: 185%; I30 μM/Icontrol (mean ± SEM, %) GluN2D [4]: 126%; I30 μM/Icontrol (mean ± SEM, %) GluN2C [6]: 139%
COc1ccc(OC[C@@H]2c3ccc(OC(C)C)cc3CCN2C(=O)c2cccc(Cl)c2)cc1 [(S)-(−)-1180-55]	5.2 µM		307%	350%			360%	I10 μM/Icontrol (mean ± SEM, %) GluN2B [1]: 269%; EC50 [3, 14]: 4.5 µM; I10 μM/Icontrol (mean ± SEM, %) GluN2D [4]: 336%; I10 μM/Icontrol (mean ± SEM, %) GluN2C [6]: 361%
CCOc1ccc(OC[C@@H]2c3ccc(OC(C)C)cc3CCN2C(=S)c2cccc(F)c2)cc1 [(S)-(−)-1180-154]	< 0.5 µM		213%	190%	0.46 µM		163%	I30 μM/Icontrol (mean ± SEM, %) GluN2B [1]: 206%; EC50 [3, 14]: 0.47 µM; I30 μM/Icontrol (mean ± SEM, %) GluN2D [4]: 185%; I30 μM/Icontrol (mean ± SEM, %) GluN2C [6]: 153%
CCOc1ccc(OCC2c3ccc(OC(C)C)cc3CCN2C(=S)Nc2cccc(Cl)c2)cc1 (stereo not drawn) [1180-210]						173%		Emax [3, 15]: 174%
CCOc1ccc(OCC2c3ccc(OC4CCCC4)cc3CCN2C(=O)c2cccc(F)c2)cc1 (stereo not drawn) [1180-112]								EC50 ([3]; Tables 11-13, read-out: EC50 & Max Effect: 2D): 4.2 µM; Emax [3, 16]: 157%; EC50 ([5]; Tables 11-13, read-out: EC50 & Max Effect: 2C): 4.1 µM; Emax [5, 17]: 170%
COc1ccc(OCC2c3ccc(OC)cc3CCN2C(=O)c2ccc(Cl)s2)cc1 (stereo not drawn) [1180-239]								EC50 ([2]; untitled tables after drawing 25 and drawing 36, read-out: EC50 (μM) GluN2B): 1.6 µM; EC50 ([3]; untitled tables after drawing 25 and drawing 36, read-out: EC50 (μM) GluN2D): 1 µM; EC50 ([5]; untitled tables after drawing 25 and drawing 36, read-out: EC50 (μM) GluN2C): 0.9 µM
COc1ccc(OCC2c3ccc(OC(C)C)cc3CCN2C(=O)c2cccc(Cl)c2)cc1 (stereo not drawn) [1180-55]	5 µM	193%	215%	323%		266%	250%	I10 μM/Icontrol (mean ± SEM, %) GluN2B [1]: 191%; EC50 ([3]; EC50 & Max Effect: 2D (μM)): 2.9 µM; EC50 [3, 14]: 4.3 µM; I10 μM/Icontrol (mean ± SEM, %) GluN2D [4]: 281%; Emax ([5]; read-out: EC50 & Max Effect: 2C Max (%)): 266%; I10 μM/Icontrol (mean ± SEM, %) GluN2C [6]: 231%
COc1ccc(OCC2c3cc(C)c(C)cc3CCN2C(=O)c2cccc(Br)c2)cc1 (stereo not drawn) [drawing 33 R1=Br R2=H R3=H R4=Me R5=Me]								Emax [3, 16]: 211%; Emax [5, 17]: 197%
CCOc1ccc(OCC2c3ccc(OC(C)C)cc3CCN2C(=S)c2cccc(Br)c2)cc1 (stereo not drawn) [1180-156]		187%				161%		Emax [3, 15]: 130%
